Our source for the Ki values is patent publication US11014911B2, “CDK2 inhibitors” (Pfizer Inc., priority 2019, dated 2021).

The test deals with CDK2/Cyclin E1 full length (Homo sapiens (Human), UniProt P24941). As to the kind of experiment: CDK2/Cyclin E1 full length mobility shift assay. Type of test: biochemical.

pKi: −log10 of the molar value.

A word on the pKi: it is −log10 of the Ki, conventionally taken in molar units. On to `CC(C)NC(=O)O[C@@H]1CC[C@H](c2cc(NC(=O)C3COc4ccccc43)n[nH]2)C1` (single isomer, unassigned) [Example 57], for which the pKi was 8.45. For the compound `CC(CC(F)(F)F)NC(=O)O[C@@H]1CC[C@H](c2cc(NC(=O)Cc3ccon3)n[nH]2)C1` (single isomer, unassigned) [Example 63], the pKi was 8.90. For `CC(CC(F)(F)F)NC(=O)O[C@@H]1CC[C@H](c2cc(NC(=O)Cc3ccn(C)n3)n[nH]2)C1` (single isomer, unassigned) [Example 65] the value was 8.66; for `COc1cnc(CC(=O)Nc2cc([C@H]3CC[C@@H](OC(=O)NC(C)CC(F)(F)F)C3)[nH]n2)cn1` (single isomer, unassigned) [Example 67], 8.82; for `Cc1ccc(C(=O)Nc2cc([C@H]3CC[C@@H](OC(=O)NC(C)CC(F)(F)F)C3)[nH]n2)cn1` (single isomer, unassigned) [Example 69], 8.37. The value for `Cc1cnc(CC(=O)Nc2cc([C@H]3CC[C@@H](OC(=O)NC(C)CC(F)(F)F)C3)[nH]n2)cn1` (single isomer, unassigned) [Example 73] was 8.64; that for `CC(CC(F)(F)F)NC(=O)O[C@@H]1CC[C@H](c2cc(NC(=O)Cc3ccno3)n[nH]2)C1` (single isomer, unassigned) [Example 85] was 8.97; that for `COCCn1nccc1C(=O)Nc1cc([C@H]2CC[C@@H](OC(=O)NC(C)CC(F)(F)F)C2)[nH]n1` (single isomer, unassigned) [Example 87] was 8.88. As to `COCCn1nccc1C(=O)Nc1cc([C@H]2CC[C@@H](OC(=O)NC(C)CC(F)(F)F)C2)[nH]n1` (single isomer, unassigned) [Example 88], the pKi is 9.82.

As for `CC(CC(F)(F)F)N(C)C(=O)O[C@@H]1CC[C@H](c2cc(NC(=O)Cc3ccno3)n[nH]2)C1` (single isomer, unassigned) [Example 89], the pKi is 9.07. Take `Cc1cnc(CC(=O)Nc2cc([C@H]3CC[C@@H](OC(=O)NC(C)CC(F)F)C3)[nH]n2)o1` (single isomer, unassigned) [Example 96]: the pKi is 8.69. Regarding `COc1cc(CC(=O)Nc2cc([C@H]3CC[C@@H](OC(=O)NC(C)CC(F)F)C3)[nH]n2)ccn1` (single isomer, unassigned) [Example 99], the pKi was 10.05.

As for `CC1(NC(=O)O[C@@H]2CC[C@H](c3cc(NC(=O)Cc4ccccc4)n[nH]3)C2)CCOC1` (single isomer, unassigned) [Example 125], the negative logarithm of the Ki (pKi) is 9.47. Regarding `COc1ccc(CC(=O)Nc2cc([C@H]3CC[C@@H](OC(=O)N4CCC4C)C3)[nH]n2)cn1` (single isomer, unassigned) [Example 152], the negative-log Ki (pKi) is 8.97.

Regarding `COc1cc(CC(=O)Nc2cc([C@H]3CC[C@@H](OC(=O)N4CCC4C)C3)[nH]n2)ccn1` (single isomer, unassigned) [Example 154], the negative logarithm of the Ki (pKi) is 8.75. `COc1cc(CC(=O)Nc2cc([C@H]3CC[C@@H](OC(=O)N4C[C@@H](C#N)[C@@H]4C)C3)[nH]n2)ccn1` (single isomer, unassigned) [Example 156]: the pKi is 8.66. In the case of `COc1ccc(CC(=O)Nc2cc([C@H]3CC[C@@H](OC(=O)N4C[C@@H](C#N)[C@@H]4C)C3)[nH]n2)cn1` (single isomer, unassigned) [Example 157], the pKi was 8.73. Consider `Cc1ncc(CC(=O)Nc2cc([C@H]3CC[C@@H](OC(=O)N4C[C@@H](C#N)[C@@H]4C)C3)[nH]n2)s1` (single isomer, unassigned) [Example 159], for which the pKi is 8.44.

In the case of `C[C@H]1[C@H](C#N)CN1C(=O)O[C@@H]1CC[C@H](c2cc(NC(=O)Cc3ccccc3)n[nH]2)C1` (single isomer, unassigned) [Example 162], the pKi was 8.52. The value for `CCCNC(=O)O[C@@H]1CC[C@H](c2cc(NC(=O)Cc3ccccc3S(C)(=N)=O)n[nH]2)C1` (single isomer, unassigned) [Example 201] was 8.72; that for `CCCNC(=O)O[C@@H]1CC[C@H](c2cc(NC(=O)Cc3ccccc3S(C)(=N)=O)n[nH]2)C1` (single isomer, unassigned) [Example 202] was 8.73; that for `COc1ccc(S(C)(=O)=O)c(CC(=O)Nc2cc([C@H]3CC[C@@H](OC(=O)NC(C)C(F)(F)F)C3)[nH]n2)c1` (single isomer, unassigned) [Example 292] was 9.07. `CC[C@H](C)NC(=O)O[C@@H]1CC[C@H](c2cc(NC(=O)Cc3ccccc3S(C)(=N)=O)n[nH]2)C1` (single isomer, unassigned) [Example 368]: the pKi is 9.39. Turning to `CC[C@H](C)NC(=O)O[C@@H]1CC[C@H](c2cc(NC(=O)Cc3ccccc3S(C)(=N)=O)n[nH]2)C1` (single isomer, unassigned) [Example 369], the pKi is 9.08. Turning to `C[C@H](F)[C@H](C)NC(=O)O[C@@H]1CC[C@H](c2cc(NC(=O)Cc3cnn(C)c3)n[nH]2)C1` (single isomer, unassigned) [Example 381, (1R,3S)-3-(3-{[(1-methyl-1H-pyrazol-4-yl)acetyl]amino}-1H-pyrazol-5-yl)cyclopentyl [(2S*,3S*)-3-fluorobutan-2-yl]carbamate], the negative logarithm of the Ki (pKi) is 8.51. The value for `COc1cc(CC(=O)Nc2cc([C@H]3CC[C@@H](OC(=O)N[C@@H](C)[C@H](C)F)C3)[nH]n2)ccn1` (single isomer, unassigned) [Example 384, (1R,3S)-3-(3-{[(2-methoxypyridin-4-yl)acetyl]amino}-1H-pyrazol-5-yl)cyclopentyl [(2S*,3S*)-3-fluorobutan-2-yl]carbamate] was 8.91. For `CC(CC(F)F)NC(=O)O[C@@H]1CC[C@H](c2cc(NC(=O)Cc3cnn(C)c3)n[nH]2)C1` (single isomer, unassigned) [Example 387] the value was 9.52; for `Cc1ncc(CC(=O)Nc2cc([C@H]3CC[C@@H](OC(=O)NC(C)C(C)(F)F)C3)[nH]n2)s1` (single isomer, unassigned) [Example 390], 8.43; for `COc1cc(CC(=O)Nc2cc([C@H]3CC[C@@H](OC(=O)NC(C)C(C)(F)F)C3)[nH]n2)ccn1` (single isomer, unassigned) [Example 392], 8.50. For `Cc1c(CC(=O)Nc2cc([C@H]3CC[C@@H](OC(=O)NC(C)CC(F)(F)F)C3)[nH]n2)cnn1C` (single isomer, unassigned) [Example 400] the value was 8.89; for `CC(CC(F)(F)F)NC(=O)O[C@@H]1CC[C@H](c2cc(NC(=O)Cc3cnn(C(C)C)c3)n[nH]2)C1` (single isomer, unassigned) [Example 407], 8.94. `CC(CC(F)(F)F)NC(=O)O[C@@H]1CC[C@H](c2cc(NC(=O)c3ccnn3CCN(C)C)[nH]n2)C1` (single isomer, unassigned) [Example 409]: the pKi was 8.38. For the compound `CC(CC(F)(F)F)N(C)C(=O)O[C@@H]1CC[C@H](c2cc(NC(=O)c3cnnn3C)n[nH]2)C1` (single isomer, unassigned) [Example 411], the pKi was 8.59. For `CC(CC(F)(F)F)N(C)C(=O)O[C@@H]1CC[C@H](c2cc(NC(=O)c3cnnn3C)n[nH]2)C1` (single isomer, unassigned) [Example 412] the value was 9.72; for `CC1(NC(=O)O[C@@H]2CC[C@H](c3cc(NC(=O)Cc4ccno4)n[nH]3)C2)CCOC1` (single isomer, unassigned) [Example 474], 9.36; for `Cc1cnc(CC(=O)Nc2cc([C@H]3CC[C@@H](OC(=O)NC4(C)CCOC4)C3)[nH]n2)o1` (single isomer, unassigned) [Example 478], 8.95. With `COc1cc(C(=O)Nc2cc([C@H]3CC[C@@H](OC(=O)NC4(C)CCOC4)C3)[nH]n2)n(C)n1` (single isomer, unassigned) [Example 479], the pKi was 9.05. Take `COc1cc(C(=O)Nc2cc([C@H]3CC[C@@H](OC(=O)NC4(C)CCOC4)C3)[nH]n2)n(C)n1` (single isomer, unassigned) [Example 480]: the negative-log Ki (pKi) is 8.70.

On to `COc1ccc(CC(=O)Nc2cc([C@H]3CC[C@@H](OC(=O)NC4(C)CCOC4)C3)[nH]n2)cc1` (single isomer, unassigned) [Example 483], for which the pKi is 9.49.

With `COc1cnc(CC(=O)Nc2cc([C@H]3CC[C@@H](OC(=O)NC4(C)CCOC4)C3)[nH]n2)cn1` (single isomer, unassigned) [Example 485], the pKi was 8.85. As to `COc1cnc(CC(=O)Nc2cc([C@H]3CC[C@@H](OC(=O)NC4(C)CCOC4)C3)[nH]n2)cn1` (single isomer, unassigned) [Example 486], the negative logarithm of the Ki (pKi) was 8.84.

For `COCc1cc(C(=O)Nc2cc([C@H]3CC[C@@H](OC(=O)NC4(C)CCOC4)C3)[nH]n2)n(C)n1` (single isomer, unassigned) [Example 488], the pKi was 8.85. In the case of `CC1(NC(=O)O[C@@H]2CC[C@H](c3cc(NC(=O)CC4COc5ccccc54)n[nH]3)C2)CCOC1` (single isomer, unassigned) [Example 489], the pKi is 8.43. For `CC1(NC(=O)O[C@@H]2CC[C@H](c3cc(NC(=O)CC4COc5ccccc54)n[nH]3)C2)CCOC1` (single isomer, unassigned) [Example 490] the value was 8.43. Take `CC1(NC(=O)O[C@@H]2CC[C@H](c3cc(NC(=O)CC4COc5ccccc54)n[nH]3)C2)CCOC1` (single isomer, unassigned) [Example 492]: the pKi is 8.62. With `Cn1ncc(CC(=O)Nc2cc([C@H]3CC[C@@H](OC(=O)NC4(C)CCOC4)C3)[nH]n2)c1C(F)(F)F` (single isomer, unassigned) [Example 495], the negative logarithm of the Ki (pKi) was 8.75. As for `Cn1ncc(CC(=O)Nc2cc([C@H]3CC[C@@H](OC(=O)NC4(C)CCOC4)C3)[nH]n2)c1C(F)(F)F` (single isomer, unassigned) [Example 496], the pKi is 8.65.

As to `O=C(Cc1cc(F)cc(F)c1)Nc1cc([C@@H]2CC[C@H](OC(=O)NCC3CCCOC3)C2)[nH]n1` (single isomer, unassigned) [Example 516], the pKi was 8.49. Turning to `CCC(CO)CNC(=O)O[C@@H]1CC[C@H](c2cc(NC(=O)Cc3cnc(C)o3)n[nH]2)C1` (single isomer, unassigned) [Example 526], the negative-log Ki (pKi) is 8.40.
